Converted amounts (≈) assume the structure as drawn.
Assays:
S. sonnei 02–1181 = assay: Solid medium test at 10 µM and dose-response MIC against MDR clinical isolate; type: cell-based, Shigella sonnei
Protocol: (§1) The confirmed hit list was narrowed by applying the following filters: a 30% cut-off value, absence of undesirable structural features (e.g. electrophiles, peroxides, and Michael acceptors) and reduced physicochemical risk (maximum five aromatic rings and PFI <8)([Leeson and Young, 2015]). […] Briefly, the selected bacteria were cultured on the Luria-Bertani agar overnight at 37 °C (Campylobacter isolates were grown in 2.5% Laked Horse Blood cation-adjusted Mueller Hinton medium (CAMHB, Sigma Aldrich) and incubated in microaerophilic conditions (10% CO2, 5% O2 and 85% N2) at 42 °C); colonies were added to sterile PBS to form 0.5 McFarland solutions. All chemical testing was performed at an initial concentration of 10 μM. Bacterial suspensions were evenly spread on Mueller-Hinton agar by sterile cotton swabs (Medical Wire – MWE). […] Plates were incubated overnight at 37 °C. The activity of the chemical was recorded as being active (yes) or non-active (no) for each of the tested chemicals.
(§2) MICs were evaluated using the micro dilution assay in Müller Hinton broth using 1 mM chemical stock solutions, and a final concentration of 5 × 10^5 CFU/mL bacteria. Twofold serial dilutions were prepared in 96-well plates at concentration ranging from 1 μM to 7.8 nM. 100 μL bacteria were added and incubated at 37 °C overnight; 10 μl of each solution was dropped onto Luria-Bertani agar and incubated overnight at 37 °C for the detection of bacterial growth. Results were interpreted as minimal concentration necessary to inhibit growth.

Shigella (Sf2457T) = assay: Checkerboard synergy assay (FIC), laboratory isolate; type: cell-based, Shigella flexneri
Protocol: (§3) Before initiating drug combination assays, the MIC values for both compounds were determined against Shigella (Sf2457T), Salmonella (St14028), and E. coli (EcDH5a) isolates. […] 20 μM moxifloxacin was used as negative control (100% bacterial growth inhibition) in one column and DMSO as positive control (100% bacterial growth). A total of 25 µl of 1 × 10^6 CFU/mL bacterial culture was added to each well of a 384-well plate (μClear; Greiner Bio‐One). Plates were incubated overnight at 37 °C. Next, 10 µl of resazurin were added and plates were incubated at room temperature for 3 hr. Bacterial growth inhibition was measured by fluorescence in a Envision plate reader (PerkinElmer). All assays were performed in duplicate. Combination studies with clinical isolates were performed in 96-well plates (Greiner) adding 200 μl of 1 × 10^6 CFU/mL bacterial culture and following the same checkboard titration method as described above. The range of final working concentrations of each antimicrobial was adjusted based on the MIC of each selected organism.
MICs were determined for drug A and drug B alone and in combination. […] The sum of FIC was expressed using the following equation: FIC = (MIC of drug A in combination / MIC of drug A alone) + (MIC of drug B in combination / MIC of drug B alone) ([Le Minh et al., 2015]; [Petersen et al., 2006]; [Hall et al., 1983]; [European Committee for Antimicrobial Susceptibility Testing (EUCAST) of the European Society of Clinical Microbiology and Infectious Dieases (ESCMID), 2000]).

in vivo [1] = conditions: female, C57, mouse; for bioavailability: mice, n = 3
[2] = test system: invasive and non-invasive Salmonella isolates; assay: Checkerboard synergy assay (FIC), clinical Salmonella isolates; type: cell-based; conditions: in combination with azithromycin
Protocol: as §3
(§4) MICs were determined for drug A and drug B alone and in combination. […]

S. flexneri 2457T = assay: microbe, parasite or virus in culture; type: cell-based, Shigella flexneri
Protocol: Bacterial inoculum without drug was used as positive control. The bacteria inoculum (1 × 10^5 CFU/mL) for the assay was prepared by diluting a log phase incubated at 37 °C for 3–4 hr. Mueller Hinton agar plates were prepared containing 4xMIC and 10xMIC and inoculated with different concentrations of bacteria (1 × 10^9, 1 × 10^8, and 1 × 10^7 CFU/mL). Plates were prepared in duplicate and incubated overnight at 37 °C. The frequency of spontaneous resistant mutants was calculated by using the formula: FoR = resistant CFUs/inoculum CFUs. The mean of the two plates was reported.

S. flexneri EG478 = assay: Solid medium test at 10 µM and dose-response MIC against MDR clinical isolate; type: cell-based, Shigella flexneri
Protocol: as §1, §2

E. coli = assay: MIC by micro dilution, clinical E. coli isolates from Vietnam; type: cell-based; conditions: Escherichia coli; seven E. coli from diarrhoeal cases in Vietnam; read-out: median MIC
From the text: Selected compounds, including Tebipenem, were profiled against a panel of […] clinical isolates of enteric pathogens comprised of Shigella (Vietnam and Kenya; n = 135), non-typhoidal Salmonella (Vietnam; n = 117), Campylobacter (Vietnam; n = 75), and various pathogenic E. coli species (Vietnam; n = 7) ([Butcher et al., 2014]). The antimicrobial susceptibility profile of these organisms is described in Supplementary file 1.
Compound screening and dose response assays have been described previously ([Van Voorhis et al., 2016]; [Wiegand et al., 2008]). Briefly, the selected bacteria were cultured on the Luria-Bertani agar overnight at 37 °C (Campylobacter isolates were grown in 2.5% Laked Horse Blood cation-adjusted Mueller Hinton medium (CAMHB, Sigma Aldrich) and incubated in microaerophilic conditions (10% CO2, 5% O2 and 85% N2) at 42 °C); colonies were added to sterile PBS to form 0.5 McFarland solutions. […] The activity of the chemical was recorded as being active (yes) or non-active (no) for each of the tested chemicals. A non-active result was recorded when there was no evidence of bacterial inhibition, and the culture area was indistinguishable from the negative control.
MICs were evaluated using the micro dilution assay in Müller Hinton broth using 1 mM chemical stock solutions, and a final concentration of 5 × 10^5 CFU/mL bacteria. […]

in vivo [3] = conditions: pig, po, 50 mg/kg
Protocol: Blood was collected from the jugular veins while manually restraining the piglets. […] Blood samples were centrifuged at 2,200 x g for 10 min at 4 °C. Plasma was extracted and stored at –80 °C. Pharmacokinetic analysis was performed as above described.

[4] = test system: enteric pathogens (Salmonella spp., Shigella spp., K. pneumoniae, and E. coli); assay: Checkerboard synergy assay (FIC), Gram-negative MDR clinical isolates; type: cell-based; conditions: Tebipenem/LpxC inhibitor combination, all tested enteric pathogens
Protocol: as §3, §4

[5] = in combination with LpxC inhibitor PF-5081090

C[C@@H](O)[C@H]1C(=O)N2C(C(=O)O)=C(SC3CN(C4=NCCS4)C3)[C@H](C)[C@H]12 [Tebipenem]
bactericidal activity (S. sonnei 02–1181): greatest bactericidal activity
interaction (FIC index) (Shigella (Sf2457T); [5]): partial synergy
reduction of the MIC against Tebipenem (Shigella (Sf2457T); [5]): > 10 fold
interaction (FIC index) (Shigella (Sf2457T); in combination with azithromycin): partial synergy
interaction (FIC index) (Shigella (Sf2457T); in combination with ceftriaxone): indifference or partial synergy
interaction (FIC index) (Shigella (Sf2457T); in combination with ciprofloxacin): indifference or partial synergy
interaction (FIC index) (Shigella (Sf2457T); in combination with mecillinam): indifference or partial synergy
Tmax (in vivo [1]): ≤ 60 min
AUC(0-t) (in vivo [1]; 39 mg/kg): 80000 ng·h/mL
AUC(0-t) (in vivo [1]; po, 39 mg/kg): 7500 ± 1500 ng·h/mL
Cmax (in vivo [1]; po, 39 mg/kg): 3700 ± 900 ng/mL
bioavailability (in vivo [1]; po, 39 mg/kg, Tebipenem PO 39 mg/kg): ~5%
AUC(0-t) (in vivo [1]; sc, 39 mg/kg): 80400 ± 7700 ng·h/mL
Cmax (in vivo [1]; sc, 39 mg/kg): 71000 ± 15300 ng/mL
Tmax (in vivo [1]; sc, 39 mg/kg): 15 min
bioavailability (in vivo [1]; sc, 39 mg/kg, Tebipenem SQ 39 mg/kg): 44 ± 4%
FIC scores [2]: ~ 0.5
frequency of spontaneous resistance (S. flexneri 2457T; S. flexneri 2457T, 4 x and 10 x MIC): < 1.2 × 10^–9
MIC (S. flexneri 2457T; Shigella flexneri, 2457T): 0.02 µM (≈ 7.67 ng/mL)
bactericidal activity (S. flexneri EG478; MDR clinical isolate S. flexneri EG478): greatest bactericidal activity
MIC range (S. flexneri EG478; range over S. flexneri EG478 and S. sonnei 02-1181): 0.08 to 0.15 µg/mL
MIC (E. coli): < 0.1 µM
AUC(0-t) (in vivo [3]): 32000 ng·h/mL
concentration at 6 hr (in vivo [3]): 1000 ng/mL
interaction (FIC index) [4]: indifference or partial synergy
